Measurements: PubChem BioAssay (NCI)
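Following 48 hours of exposure in 96-well plates, responses at five concentrations were used to interpolate endpoints linearly. GI50 is the concentration that inhibits growth by half. The concentration for full growth arrest is given as TGI.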

tested on: HS 578T breast; assay: NCI-60 cell line screen, 48 h

O=C1NC2(CCN(CCc3ccccc3)CC2)Oc2ccccc21 and Cc1cc(OC(=O)Nc2cccc3ccccc23)c(C(C)C)cc1C(=S)Nc1ccccc1 are within 1.5-fold of each other in TGI: 50.7 µM for the first, 55.2 µM for the second.

Compared with COc1cc2c(/C=C3/C(=O)Nc4cccc(Cl)c43)c(Cl)[nH]c2cc1C, Cc1ccc(S(=O)(=O)N2C3C=CC(C3)[C@@H]2C(Cl)(Cl)Cl)cc1 (some centres undefined) is 7.4-fold higher in TGI: 5.58 µM for the first, 41.3 µM for the second.

With COCOC1/C=C/CCCCC(=O)C(C)C#CC1 (centres undefined) the TGI was greater than 73.7 µM.

tested on: OVCAR-8 ovarian; assay: NCI-60 cell line screen, 48 h

Going from O=c1c(F)cn(Cc2c(Cl)cccc2Cl)c(=O)n1Cc1c(Cl)cccc1Cl to COc1cc2c(/C=C3/C(=O)Nc4cccc(Cl)c43)c(Cl)[nH]c2cc1C, the TGI falls from greater than 31.6 µM to 11.8 µM.

First: COc1ccc(C2=CC(C(C)=C(C(N)=O)C(N)=O)C=C(c3ccc(Br)cc3)C2)c(OC)c1 (centres undefined)
Second: Cc1cc(OC(=O)Nc2cccc3ccccc23)c(C(C)C)cc1C(=S)Nc1ccccc1
The TGI of the first is higher: greater than 100 µM for the first, 28.8 µM for the second.

First: CC(C)(CN1CCCCC1)C(/C=C/c1ccc(Cl)cc1)=N\NC(=O)N/N=C(/C=C/c1ccc(Cl)cc1)C(C)(C)CN1CCCCC1
Second: O=C1NC2(CCN(CCc3ccccc3)CC2)Oc2ccccc21
The TGI of the first is lower: 23.1 µM for the first, greater than 100 µM for the second.

Going from O=C1c2cccc3cc([N+](=O)[O-])cc(c23)C(=O)N1Nc1ccc([N+](=O)[O-])cc1[N+](=O)[O-] to Cc1ccc(S(=O)(=O)N2C3C=CC(C3)[C@@H]2C(Cl)(Cl)Cl)cc1 (some centres undefined), the TGI rises from 21 µM to greater than 63.3 µM.

First: O=C1SC(SCc2ccccc2)=NC12CC2c1ccccc1 (centres undefined)
Second: N=c1oc2ccccc2cc1C(=O)NC12CC3CC(CC(C3)C1)C2
The TGI of the first is lower: 41.8 µM for the first, greater than 100 µM for the second.

For COCOC1/C=C/CCCCC(=O)C(C)C#CC1 (centres undefined), the TGI was 17.7 µM.

tested on: UACC-62 melanoma; assay: NCI-60 cell line screen, 48 h

First: O=c1c(F)cn(Cc2c(Cl)cccc2Cl)c(=O)n1Cc1c(Cl)cccc1Cl
Second: COc1cc2c(/C=C3/C(=O)Nc4cccc(Cl)c43)c(Cl)[nH]c2cc1C
The TGI of the first is higher: greater than 31.6 µM for the first, 4.21 µM for the second.

Going from COc1ccc(C2=CC(C(C)=C(C(N)=O)C(N)=O)C=C(c3ccc(Br)cc3)C2)c(OC)c1 (centres undefined) to Cc1cc(OC(=O)Nc2cccc3ccccc23)c(C(C)C)cc1C(=S)Nc1ccccc1, the TGI falls from greater than 100 µM to 26.5 µM.

First: CC(C)(CN1CCCCC1)C(/C=C/c1ccc(Cl)cc1)=N\NC(=O)N/N=C(/C=C/c1ccc(Cl)cc1)C(C)(C)CN1CCCCC1
Second: O=C1NC2(CCN(CCc3ccccc3)CC2)Oc2ccccc21
The TGI of the first is lower: 12.1 µM for the first, greater than 100 µM for the second.

O=C1c2cccc3cc([N+](=O)[O-])cc(c23)C(=O)N1Nc1ccc([N+](=O)[O-])cc1[N+](=O)[O-] and Cc1ccc(S(=O)(=O)N2C3C=CC(C3)[C@@H]2C(Cl)(Cl)Cl)cc1 (some centres undefined) are within 1.5-fold of each other in TGI: 24.5 µM for the first, 35.2 µM for the second.

First: O=C1SC(SCc2ccccc2)=NC12CC2c1ccccc1 (centres undefined)
Second: N=c1oc2ccccc2cc1C(=O)NC12CC3CC(CC(C3)C1)C2
The TGI of the first is 1.9-fold lower: 32.8 µM for the first, 62.6 µM for the second.

With COCOC1/C=C/CCCCC(=O)C(C)C#CC1 (centres undefined) the TGI was 15.8 µM.

tested on: A549 NSCLC; assay: NCI-60 cell line screen, 48 h

Compared with O=c1c(F)cn(Cc2c(Cl)cccc2Cl)c(=O)n1Cc1c(Cl)cccc1Cl, COc1cc2c(/C=C3/C(=O)Nc4cccc(Cl)c43)c(Cl)[nH]c2cc1C is lower in TGI: greater than 31.6 µM for the first, 6.23 µM for the second.

COc1ccc(C2=CC(C(C)=C(C(N)=O)C(N)=O)C=C(c3ccc(Br)cc3)C2)c(OC)c1 (centres undefined) and Cc1cc(OC(=O)Nc2cccc3ccccc23)c(C(C)C)cc1C(=S)Nc1ccccc1 cannot be ordered by TGI: greater than 100 µM for the first, greater than 100 µM for the second.

CC(C)(CN1CCCCC1)C(/C=C/c1ccc(Cl)cc1)=N\NC(=O)N/N=C(/C=C/c1ccc(Cl)cc1)C(C)(C)CN1CCCCC1 and O=C1NC2(CCN(CCc3ccccc3)CC2)Oc2ccccc21 cannot be ordered by TGI: greater than 57 µM for the first, greater than 100 µM for the second.

O=C1c2cccc3cc([N+](=O)[O-])cc(c23)C(=O)N1Nc1ccc([N+](=O)[O-])cc1[N+](=O)[O-] and Cc1ccc(S(=O)(=O)N2C3C=CC(C3)[C@@H]2C(Cl)(Cl)Cl)cc1 (some centres undefined) cannot be ordered by TGI: greater than 31.6 µM for the first, greater than 100 µM for the second.

O=C1SC(SCc2ccccc2)=NC12CC2c1ccccc1 (centres undefined) and N=c1oc2ccccc2cc1C(=O)NC12CC3CC(CC(C3)C1)C2 are within 1.5-fold of each other in TGI: 81.8 µM for the first, 73.1 µM for the second.

For COCOC1/C=C/CCCCC(=O)C(C)C#CC1 (centres undefined), the TGI was 30.1 µM.

tested on: BT-549 breast; assay: NCI-60 cell line screen, 48 h

First: O=c1c(F)cn(Cc2c(Cl)cccc2Cl)c(=O)n1Cc1c(Cl)cccc1Cl
Second: COc1cc2c(/C=C3/C(=O)Nc4cccc(Cl)c43)c(Cl)[nH]c2cc1C
The TGI of the first is higher: greater than 31.6 µM for the first, 3.67 µM for the second.

Going from COc1ccc(C2=CC(C(C)=C(C(N)=O)C(N)=O)C=C(c3ccc(Br)cc3)C2)c(OC)c1 (centres undefined) to Cc1cc(OC(=O)Nc2cccc3ccccc23)c(C(C)C)cc1C(=S)Nc1ccccc1, the TGI falls from greater than 100 µM to 32.1 µM.

Compared with CC(C)(CN1CCCCC1)C(/C=C/c1ccc(Cl)cc1)=N\NC(=O)N/N=C(/C=C/c1ccc(Cl)cc1)C(C)(C)CN1CCCCC1, O=C1NC2(CCN(CCc3ccccc3)CC2)Oc2ccccc21 is higher in TGI: 13.2 µM for the first, greater than 100 µM for the second.

O=C1c2cccc3cc([N+](=O)[O-])cc(c23)C(=O)N1Nc1ccc([N+](=O)[O-])cc1[N+](=O)[O-] and Cc1ccc(S(=O)(=O)N2C3C=CC(C3)[C@@H]2C(Cl)(Cl)Cl)cc1 (some centres undefined) cannot be ordered by TGI: greater than 31.6 µM for the first, 32.4 µM for the second.

O=C1SC(SCc2ccccc2)=NC12CC2c1ccccc1 (centres undefined) and N=c1oc2ccccc2cc1C(=O)NC12CC3CC(CC(C3)C1)C2 are within 1.5-fold of each other in TGI: 52.8 µM for the first, 50.6 µM for the second.

Work on COCOC1/C=C/CCCCC(=O)C(C)C#CC1 (centres undefined) yielded a TGI of 19.3 µM.

tested on: K-562 leukemia; assay: NCI-60 cell line screen, 48 h

First: O=c1c(F)cn(Cc2c(Cl)cccc2Cl)c(=O)n1Cc1c(Cl)cccc1Cl
Second: COc1cc2c(/C=C3/C(=O)Nc4cccc(Cl)c43)c(Cl)[nH]c2cc1C
The TGI of the first is higher: greater than 31.6 µM for the first, 3.64 µM for the second.

Compared with COc1ccc(C2=CC(C(C)=C(C(N)=O)C(N)=O)C=C(c3ccc(Br)cc3)C2)c(OC)c1 (centres undefined), Cc1cc(OC(=O)Nc2cccc3ccccc23)c(C(C)C)cc1C(=S)Nc1ccccc1 is lower in TGI: greater than 100 µM for the first, 43.2 µM for the second.

CC(C)(CN1CCCCC1)C(/C=C/c1ccc(Cl)cc1)=N\NC(=O)N/N=C(/C=C/c1ccc(Cl)cc1)C(C)(C)CN1CCCCC1 and O=C1NC2(CCN(CCc3ccccc3)CC2)Oc2ccccc21 cannot be ordered by TGI: greater than 100 µM for the first, greater than 100 µM for the second.

O=C1c2cccc3cc([N+](=O)[O-])cc(c23)C(=O)N1Nc1ccc([N+](=O)[O-])cc1[N+](=O)[O-] and Cc1ccc(S(=O)(=O)N2C3C=CC(C3)[C@@H]2C(Cl)(Cl)Cl)cc1 (some centres undefined) cannot be ordered by TGI: greater than 31.6 µM for the first, greater than 100 µM for the second.

O=C1SC(SCc2ccccc2)=NC12CC2c1ccccc1 (centres undefined) and N=c1oc2ccccc2cc1C(=O)NC12CC3CC(CC(C3)C1)C2 are within 1.5-fold of each other in TGI: 55.3 µM for the first, 72.1 µM for the second.

Work on COCOC1/C=C/CCCCC(=O)C(C)C#CC1 (centres undefined) yielded a TGI of 7.66 µM.

With Cc1ccc(S(=O)(=O)N2C3C=CC(C3)[C@@H]2C(Cl)(Cl)Cl)cc1 (some centres undefined) the GI50 was 28.5 µM.

tested on: HOP-62 NSCLC; assay: NCI-60 cell line screen, 48 h

First: O=c1c(F)cn(Cc2c(Cl)cccc2Cl)c(=O)n1Cc1c(Cl)cccc1Cl
Second: COc1cc2c(/C=C3/C(=O)Nc4cccc(Cl)c43)c(Cl)[nH]c2cc1C
The TGI of the first is higher: greater than 31.6 µM for the first, 10.2 µM for the second.

Compared with COc1ccc(C2=CC(C(C)=C(C(N)=O)C(N)=O)C=C(c3ccc(Br)cc3)C2)c(OC)c1 (centres undefined), Cc1cc(OC(=O)Nc2cccc3ccccc23)c(C(C)C)cc1C(=S)Nc1ccccc1 is lower in TGI: greater than 100 µM for the first, 34.9 µM for the second.

Compared with CC(C)(CN1CCCCC1)C(/C=C/c1ccc(Cl)cc1)=N\NC(=O)N/N=C(/C=C/c1ccc(Cl)cc1)C(C)(C)CN1CCCCC1, O=C1NC2(CCN(CCc3ccccc3)CC2)Oc2ccccc21 is higher in TGI: 14.2 µM for the first, greater than 100 µM for the second.

O=C1c2cccc3cc([N+](=O)[O-])cc(c23)C(=O)N1Nc1ccc([N+](=O)[O-])cc1[N+](=O)[O-] and Cc1ccc(S(=O)(=O)N2C3C=CC(C3)[C@@H]2C(Cl)(Cl)Cl)cc1 (some centres undefined) are within 1.5-fold of each other in TGI: 50.5 µM for the first, 41.5 µM for the second.

O=C1SC(SCc2ccccc2)=NC12CC2c1ccccc1 (centres undefined) and N=c1oc2ccccc2cc1C(=O)NC12CC3CC(CC(C3)C1)C2 cannot be ordered by TGI: greater than 82.8 µM for the first, greater than 83.7 µM for the second.

COCOC1/C=C/CCCCC(=O)C(C)C#CC1 (centres undefined) showed a TGI of 33.9 µM.

tested on: PC-3 prostate; assay: NCI-60 cell line screen, 48 h

Going from O=c1c(F)cn(Cc2c(Cl)cccc2Cl)c(=O)n1Cc1c(Cl)cccc1Cl to COc1cc2c(/C=C3/C(=O)Nc4cccc(Cl)c43)c(Cl)[nH]c2cc1C, the TGI falls from greater than 31.6 µM to 11.8 µM.

Going from COc1ccc(C2=CC(C(C)=C(C(N)=O)C(N)=O)C=C(c3ccc(Br)cc3)C2)c(OC)c1 (centres undefined) to Cc1cc(OC(=O)Nc2cccc3ccccc23)c(C(C)C)cc1C(=S)Nc1ccccc1, the TGI falls from greater than 100 µM to 42.2 µM.

Going from CC(C)(CN1CCCCC1)C(/C=C/c1ccc(Cl)cc1)=N\NC(=O)N/N=C(/C=C/c1ccc(Cl)cc1)C(C)(C)CN1CCCCC1 to O=C1NC2(CCN(CCc3ccccc3)CC2)Oc2ccccc21, the TGI rises from 19.7 µM to greater than 100 µM.

O=C1c2cccc3cc([N+](=O)[O-])cc(c23)C(=O)N1Nc1ccc([N+](=O)[O-])cc1[N+](=O)[O-] and Cc1ccc(S(=O)(=O)N2C3C=CC(C3)[C@@H]2C(Cl)(Cl)Cl)cc1 (some centres undefined) cannot be ordered by TGI: 72.7 µM for the first, greater than 70.3 µM for the second.

O=C1SC(SCc2ccccc2)=NC12CC2c1ccccc1 (centres undefined) and N=c1oc2ccccc2cc1C(=O)NC12CC3CC(CC(C3)C1)C2 cannot be ordered by TGI: greater than 66.8 µM for the first, greater than 68.9 µM for the second.

In the case of COCOC1/C=C/CCCCC(=O)C(C)C#CC1 (centres undefined), the TGI is reported as 24 µM.

tested on: SR leukemia; assay: NCI-60 cell line screen, 48 h

Going from O=c1c(F)cn(Cc2c(Cl)cccc2Cl)c(=O)n1Cc1c(Cl)cccc1Cl to COc1cc2c(/C=C3/C(=O)Nc4cccc(Cl)c43)c(Cl)[nH]c2cc1C, the TGI falls from greater than 31.6 µM to 2.95 µM.

Compared with COc1ccc(C2=CC(C(C)=C(C(N)=O)C(N)=O)C=C(c3ccc(Br)cc3)C2)c(OC)c1 (centres undefined), Cc1cc(OC(=O)Nc2cccc3ccccc23)c(C(C)C)cc1C(=S)Nc1ccccc1 is lower in TGI: greater than 100 µM for the first, 33.5 µM for the second.

Compared with CC(C)(CN1CCCCC1)C(/C=C/c1ccc(Cl)cc1)=N\NC(=O)N/N=C(/C=C/c1ccc(Cl)cc1)C(C)(C)CN1CCCCC1, O=C1NC2(CCN(CCc3ccccc3)CC2)Oc2ccccc21 is higher in TGI: 8.52 µM for the first, greater than 100 µM for the second.

First: O=C1c2cccc3cc([N+](=O)[O-])cc(c23)C(=O)N1Nc1ccc([N+](=O)[O-])cc1[N+](=O)[O-]
Second: Cc1ccc(S(=O)(=O)N2C3C=CC(C3)[C@@H]2C(Cl)(Cl)Cl)cc1 (some centres undefined)
The TGI of the first is 3.7-fold lower: 11.6 µM for the first, 43.2 µM for the second.

Going from O=C1SC(SCc2ccccc2)=NC12CC2c1ccccc1 (centres undefined) to N=c1oc2ccccc2cc1C(=O)NC12CC3CC(CC(C3)C1)C2, the TGI falls from 52.5 µM to 11.4 µM (4.6-fold).

Molecule COCOC1/C=C/CCCCC(=O)C(C)C#CC1 (centres undefined) has a TGI of 8.02 µM.
